Experiment in all cases: DTP human tumour cell line panel, 48 h
Experiment [1] has as its system TK-10 renal.
Experiment [2] concerns HCC-2998 colon.
Experiment [3] deals with HCT-15 colon.
Experiment [4] has as its system SK-MEL-28 melanoma.
For experiment [5], the system named is OVCAR-8 ovarian.
Experiment [6] deals with ACHN renal.
Experiment [7] relates to UACC-257 melanoma.
Experiment [8] concerns RPMI-8226 leukemia.
Experiment [9] relates to MOLT-4 leukemia.
Experiment [10] relates to LOX IMVI melanoma.
For experiment [11], the system named is SK-MEL-2 melanoma.
Experiment [12] has as its system U251 CNS.
The subject of experiment [13] is A549 NSCLC.
Experiment [14] relates to MALME-3M melanoma.
The subject of experiment [15] is OVCAR-5 ovarian.
Experiment [16] relates to SF-268 CNS.

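How tested: cells in 96-well plates exposed to compound for 48 hours at five concentrations. TGI denotes the concentration required for complete inhibition of growth.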

As usually defined, the TGI is the concentration giving total growth inhibition. Turning to `COC(=O)/C(=N\NC(N)=O)C(C#N)c1ccccc1` (stereo unspecified), the concentration for total growth inhibition (TGI) in [1], in experiment [2], in experiment [3], in experiment [4], in experiment [5] and in [6] was more than 100 µM in each case. Also, the TGI in [7], in [8], in experiment [9], in experiment [10], in experiment [11] and in experiment [12] was more than 100 µM each time. The TGI in experiment [13], in experiment [14], in experiment [15] and in experiment [16] was more than 100 µM throughout.
For the molecule `COc1ccc(-c2cc(=O)c3cc(Cl)ccc3[nH]2)cc1`, the TGI in experiment [1], in [2], in experiment [4], in experiment [5], in experiment [6] and in [7] was more than 100 µM in each case. Moreover, the concentration for total growth inhibition (TGI) in [8], in [9], in experiment [10], in experiment [14], in experiment [15] and in experiment [16] was more than 100 µM throughout.
Consider `Cc1cc2c(=O)c(C)n[nH]c2c(C#N)c1C`, for which the TGI in [1], in experiment [2], in experiment [3], in experiment [4], in [5] and in [6] was more than 100 µM throughout. Also, the TGI in [7], in [8], in experiment [9], in experiment [10], in experiment [12] and in [13] was more than 100 µM in each case. The TGI in experiment [14], in [15] and in experiment [16] was more than 100 µM in each case.
As for `Cc1cccc(N=Cc2ccc(N(CCC#N)S(=O)(=O)c3ccccc3)cc2C)c1`, the concentration for total growth inhibition (TGI) in experiment [1], in experiment [2], in experiment [3], in experiment [4], in [5] and in experiment [6] was more than 100 µM each time. Besides, the concentration for total growth inhibition (TGI) in experiment [7], in experiment [8], in experiment [9], in experiment [10], in experiment [11] and in [12] was more than 100 µM in each case. For the same molecule, the TGI in experiment [13], in [14], in experiment [15] and in [16] was more than 100 µM in each case.
Take `N#Cc1ccccc1NC(=O)C(=O)C(C(=O)c1ccncc1)C1OC(=O)c2ccccc21` (stereo unspecified): the TGI in experiment [1], in experiment [2], in experiment [3], in experiment [4], in experiment [5] and in experiment [6] was more than 100 µM in each case. The TGI in experiment [7], in [10], in [12], in experiment [13], in experiment [14] and in [15] was more than 100 µM in each case. In [16], the TGI was more than 100 µM.
On to `Nc1ccn(CCOC(c2ccccc2)P(=O)(O)O)c(=O)n1` (stereo unspecified), for which the TGI in experiment [1], in experiment [2], in experiment [3], in experiment [4], in [5] and in experiment [6] was more than 100 µM in each case. The concentration for total growth inhibition (TGI) in [7], in [9], in experiment [10], in experiment [11], in experiment [12] and in experiment [13] was more than 100 µM each time. Besides, the TGI in [14], in [15] and in experiment [16] was more than 100 µM each time.
Take `CO/N=C(/C(=O)Nc1c[n+](CC(=O)[O-])cs1)c1csc(N)n1`: the TGI in experiment [1], in experiment [2], in [3], in [5], in [6] and in [7] was more than 100 µM each time. Also, the concentration for total growth inhibition (TGI) in experiment [8], in experiment [9], in experiment [10], in experiment [11], in [12] and in [13] was more than 100 µM in each case. The TGI in experiment [14], in experiment [15] and in experiment [16] was more than 100 µM in each case.
Consider `COc1ccc([Se][Se]c2ccc(OC)cc2OC)c(OC)c1`, for which the TGI in experiment [1] is 16.3 µM; in experiment [2], more than 100 µM; in experiment [3], 4.33 µM; in experiment [4], 4.56 µM; in [5], more than 100 µM; in [6], 8.89 µM. Besides, the total growth inhibition concentration (TGI) in experiment [7] was 5.85 µM; in experiment [8] it was 6.96 µM; in experiment [9], 19.2 µM; in experiment [11], 20.8 µM; in experiment [13], more than 100 µM; in experiment [14] it was 33.2 µM. Besides, the TGI in [16] is 4.97 µM.
As for `O=c1c(C(c2ccc([N+](=O)[O-])cc2)c2c(O)c3ccccc3n(-c3ccccc3)c2=O)c(O)c2ccccc2n1-c1ccccc1`, the concentration for total growth inhibition (TGI) in experiment [1] was more than 100 µM; in experiment [2], 29.1 µM; in [3] it was 30.7 µM; in [4] it was 66.5 µM; in experiment [5] it was 73.9 µM; in [6] it was 72 µM. The TGI in experiment [8] is 57.1 µM; in experiment [9], 41.9 µM; in [10], 27.2 µM; in experiment [11], 31 µM; in experiment [12], 75.2 µM; in [13], more than 100 µM. Moreover, the total growth inhibition concentration (TGI) in experiment [14] was 28.8 µM; in [15] it was more than 100 µM; in [16], 98.6 µM.
For the molecule `CN1N=C2c3ccccc3OC(c3ccccc3)[C@H]2C1c1ccccc1` (stereo partly specified), the TGI in experiment [1], in experiment [2], in [3], in experiment [4], in [5] and in [6] was more than 100 µM each time. Also, the TGI in [7], in [8], in experiment [9], in experiment [10], in experiment [11] and in [12] was more than 100 µM throughout. Moreover, the total growth inhibition concentration (TGI) is more than 100 µM in experiment [13], 78.3 µM in [14], more than 100 µM in [15] and more than 100 µM in [16].
With `CCCCCCCC(=O)OCC1OC(n2cc(F)c(=O)[nH]c2=O)C(N)C(O)C1O` (stereo unspecified), the concentration for total growth inhibition (TGI) in experiment [2], in experiment [3], in [4], in experiment [5], in [6] and in [7] was more than 100 µM each time. Also, the TGI in [8], in experiment [9], in experiment [11], in experiment [12], in experiment [13] and in [14] was more than 100 µM in each case. For the same molecule, the concentration for total growth inhibition (TGI) in [15] and in experiment [16] was more than 100 µM throughout.
For `CNS(=O)(=O)NNS(=O)(=O)c1ccc(F)cc1`, the concentration for total growth inhibition (TGI) in experiment [3], in [5], in experiment [6], in experiment [7], in experiment [8] and in experiment [9] was more than 100 µM each time. Also, the total growth inhibition concentration (TGI) in experiment [10], in experiment [11], in experiment [12], in experiment [13] and in [16] was more than 100 µM throughout.
Take `CCCCCCCC(=O)OC[C@H](C[As](=O)(O)O)OC(=O)CCCCCCC`: the TGI stood at 27.8 µM in experiment [2]; 23.5 µM in [3]; 26.5 µM in experiment [4]; 32 µM in experiment [5]; 23.1 µM in [6]; 27.2 µM in experiment [7]. Besides, the concentration for total growth inhibition (TGI) in experiment [8] was found to be 32.4 µM; in experiment [9] it was 14.1 µM; in experiment [12], 19.1 µM; in [13], 18.7 µM; in experiment [14] it was 25.3 µM; in experiment [16], 15.6 µM.
`O=c1[nH]nc(CNc2ccc(Cl)cc2Cl)c2ccccc12`: the TGI was determined as 45.7 µM in experiment [1]; 44.5 µM in experiment [2]; 89.1 µM in experiment [3]; 52.4 µM in [4]; 46.2 µM in [6]; 92.7 µM in experiment [7]. In addition, the TGI in experiment [8] is more than 100 µM; in experiment [9] it was more than 100 µM; in experiment [10], more than 100 µM; in experiment [11] it was more than 100 µM; in experiment [12] it was 37.9 µM; in experiment [13], 43.2 µM. In addition, the TGI in experiment [14] is 49.7 µM; in [15], more than 100 µM; in experiment [16], 44.7 µM.
In the case of `C=CCCCN1CCCCC1=S`, the TGI in experiment [1], in experiment [2], in experiment [3], in experiment [4], in [5] and in experiment [6] was more than 100 µM in each case. The TGI in [7], in [8], in experiment [9], in [10], in experiment [11] and in experiment [12] was more than 100 µM throughout. Besides, the TGI in experiment [13], in experiment [14] and in experiment [15] was more than 100 µM in each case.
On to `CS(=O)(=O)NNS(=O)(=O)c1ccc(F)cc1`, for which the TGI in experiment [1], in experiment [2], in experiment [3], in experiment [5], in experiment [6] and in experiment [7] was more than 100 µM each time. Further, the TGI in experiment [8], in experiment [9], in experiment [10], in experiment [11], in experiment [12] and in experiment [13] was more than 100 µM in each case. Also, the concentration for total growth inhibition (TGI) in [14] and in [16] was more than 100 µM throughout.
In the case of `COC(=O)N/N=C(\C)CC(=O)Nc1cccc([N+](=O)[O-])c1`, the TGI in experiment [1], in experiment [2], in [4], in experiment [5], in [7] and in experiment [8] was more than 100 µM each time. Moreover, the TGI in experiment [9], in experiment [10], in experiment [11], in experiment [12], in [13] and in [14] was more than 100 µM throughout. Moreover, the TGI in [15] and in experiment [16] was more than 100 µM in each case.
With `O=C(O[C@H]1[C@@H]2C=CO[C@@H](OC3OC(CO)C(O)C(O)C3O)[C@@H]2[C@@]2(CO)O[C@@H]12)c1ccc(O)c(O)c1` (stereo partly specified), the concentration for total growth inhibition (TGI) in [1], in experiment [2], in experiment [4], in experiment [5], in experiment [6] and in experiment [7] was more than 100 µM throughout. Moreover, the TGI in [8], in experiment [9], in experiment [10], in [11], in [12] and in experiment [13] was more than 100 µM throughout. Besides, the concentration for total growth inhibition (TGI) in [14], in experiment [15] and in experiment [16] was more than 100 µM each time.
For the molecule `C#CC(C)(C)OCCCCOc1cc(O)c2c(=O)c3ccccc3n(C)c2c1`, the TGI in experiment [1], in experiment [2], in [3], in [4], in [5] and in [6] was more than 100 µM each time. Further, the TGI in experiment [7], in experiment [8], in [10], in [11], in [12] and in [13] was more than 100 µM each time. The TGI in experiment [14], in [15] and in experiment [16] was more than 100 µM in each case.

Values taken from PubChem BioAssay (NCI).
